Source: ChEMBL document CHEMBL4002623, “Synthesis and in vitro activity of dicationic indolyl diphenyl ethers as novel potent antibiotic agents against drug-resistant bacteria” (Bioorg Med Chem Lett, 2017)
Values after ≈ are worked out from the molar mass of the structure shown.

Key:
[1] = tested on: Staphylococcus epidermidis; assay: Antibacterial activity against methicillin-sensitive Staphylococcus epidermidis ATCC 12228 by agar dilution method; type: functional
[2] = tested on: Enterococcus faecalis; assay: Antibacterial activity against vancomycin-sensitive Enterococcus faecalis ATCC 29212 by agar dilution method; type: functional
[3] = tested on: Escherichia coli; assay: Antibacterial activity against extended-spectrum beta-lactamase-negative Escherichia coli ATCC 25922 by agar dilution method; type: functional
[4] = tested on: Escherichia coli; assay: Antibacterial activity against extended-spectrum beta-lactamase-positive Escherichia coli 09-1 by agar dilution method; type: functional
[5] = tested on: Klebsiella pneumoniae; assay: Antibacterial activity against extended-spectrum beta-lactamase-negative Klebsiella pneumoniae 7 by agar dilution method; type: functional
[6] = tested on: Klebsiella pneumoniae; assay: Antibacterial activity against extended-spectrum beta-lactamase-positive Klebsiella pneumoniae 09-25 by agar dilution method; type: functional
[7] = tested on: Klebsiella pneumoniae; assay: Antibacterial activity against Klebsiella pneumoniae ATCC BAA-2146 expressing NDM-1 by agar dilution method; type: functional
[8] = Cytotoxicity against HEK293T cells after 48 hrs by MTS assay; type: cell-based, HEK-293T; conditions: human
[9] = tested on: Enterococcus faecium; assay: Antibacterial activity against vancomycin-sensitive Enterococcus faecium 09-10 by agar dilution method; type: functional
[10] = tested on: Staphylococcus epidermidis; assay: Antibacterial activity against methicillin-sensitive Staphylococcus epidermidis 09-9 by agar dilution method; type: functional
[11] = tested on: Enterococcus faecalis; assay: Antibacterial activity against vancomycin-sensitive Enterococcus faecalis 09-8 by agar dilution method; type: functional
[12] = tested on: Escherichia coli; assay: Antibacterial activity against extended-spectrum beta-lactamase-negative Escherichia coli 1515 by agar dilution method; type: functional
[13] = tested on: Escherichia coli; assay: Antibacterial activity against extended-spectrum beta-lactamase-negative Escherichia coli 09-20 by agar dilution method; type: functional
[14] = tested on: Klebsiella pneumoniae; assay: Antibacterial activity against extended-spectrum beta-lactamase-positive Klebsiella pneumoniae ATCC 700603 by agar dilution method; type: functional
[15] = tested on: Klebsiella pneumoniae; assay: Antibacterial activity against extended-spectrum beta-lactamase-negative Klebsiella pneumoniae 09-8 by agar dilution method; type: functional
[16] = tested on: Pseudomonas aeruginosa; assay: Antibacterial activity against Pseudomonas aeruginosa ATCC 27853 by agar dilution method; type: functional
[17] = tested on: Pseudomonas aeruginosa; assay: Antibacterial activity against Pseudomonas aeruginosa PAO1 by agar dilution method; type: functional
[18] = tested on: Pseudomonas aeruginosa; assay: Antibacterial activity against Pseudomonas aeruginosa 09-14 by agar dilution method; type: functional
[19] = tested on: Acinetobacter calcoaceticus; assay: Antibacterial activity against Acinetobacter calcoaceticus ATCC 19606 by agar dilution method; type: functional
[20] = tested on: Enterobacter cloacae; assay: Antibacterial activity against Enterobacter cloacae 45301 by agar dilution method; type: functional
[21] = tested on: Klebsiella aerogenes; assay: Antibacterial activity against Enterobacter aerogenes 45102 by agar dilution method; type: functional
[22] = tested on: Serratia marcescens; assay: Antibacterial activity against Serratia marcescens 41002 by agar dilution method; type: functional
[23] = tested on: Morganella morganii; assay: Antibacterial activity against Morganella morganii ATCC 25830 by agar dilution method; type: functional
[24] = tested on: Providencia rettgeri; assay: Antibacterial activity against Providencia rettgeri ATCC 31052 by agar dilution method; type: functional
[25] = tested on: Proteus vulgaris; assay: Antibacterial activity against Proteus vulgaris ATCC 29905 by agar dilution method; type: functional
[26] = tested on: Proteus mirabilis; assay: Antibacterial activity against Proteus mirabilis 09-1 by agar dilution method; type: functional
[27] = tested on: Citrobacter freundii; assay: Antibacterial activity against Citrobacter freundii ATCC 43864 by agar dilution method; type: functional
[28] = tested on: Staphylococcus aureus; assay: Antibacterial activity against methicillin-sensitive Staphylococcus aureus ATCC 29213 by agar dilution method; type: functional
[29] = tested on: Staphylococcus aureus; assay: Antibacterial activity against methicillin-resistant Staphylococcus aureus 09-13 by agar dilution method; type: functional
[30] = tested on: Staphylococcus epidermidis; assay: Antibacterial activity against methicillin-resistant Staphylococcus epidermidis 09-3 by agar dilution method; type: functional
[31] = tested on: Enterococcus faecalis; assay: Antibacterial activity against vancomycin-resistant Enterococcus faecalis 09-9 by agar dilution method; type: functional
[32] = tested on: Enterococcus faecium; assay: Antibacterial activity against vancomycin-resistant Enterococcus faecium ATCC 700221 by agar dilution method; type: functional
[33] = tested on: Staphylococcus aureus; assay: Antibacterial activity against methicillin-resistant Staphylococcus aureus ATCC 33591 by agar dilution method; type: functional
[34] = tested on: Staphylococcus aureus; assay: Antibacterial activity against methicillin-sensitive Staphylococcus aureus 15 by agar dilution method; type: functional
[35] = tested on: Staphylococcus aureus; assay: Antibacterial activity against methicillin-sensitive Staphylococcus aureus 09-6 by agar dilution method; type: functional
[36] = tested on: Enterococcus faecalis; assay: Antibacterial activity against vancomycin-resistant Enterococcus faecalis ATCC 51299 by agar dilution method; type: functional
[37] = tested on: Enterococcus faecium; assay: Antibacterial activity against vancomycin-resistant Enterococcus faecium 05-8 by agar dilution method; type: functional
[38] = tested on: Salmonella typhi; assay: Antibacterial activity against Salmonella typhi H901 by agar dilution method; type: functional, Salmonella enterica subsp. enterica serovar Typhi; conditions: Salmonella enterica

Row | Compound | MIC [1] [mg/L] | MIC [2] [mg/L] | MIC [3] [mg/L] | MIC [4] [mg/L] | MIC [5] [mg/L] | MIC [6] [mg/L] | MIC [7] [mg/L] | CC50 at 48 h [8] [mg/L] | MIC [9] [mg/L] | MIC [10] [mg/L] | MIC [11] [mg/L] | MIC [12] [mg/L] | MIC [13] [mg/L] | MIC [14] [mg/L] | MIC [15] [mg/L] | MIC [16] [mg/L] | MIC [17] [mg/L] | MIC [18] [mg/L] | MIC [19] [mg/L] | MIC [20] [mg/L] | also measured
1 | c1cc(-c2cc3ccc(C4=NCCCN4)cc3[nH]2)ccc1Oc1ccc(-c2cc3ccc(C4=NCCCN4)cc3[nH]2)cc1 | 0.25 (≈ 0.443 µM) | 4 (≈ 7.08 µM) | 64 (≈ 113 µM) | 64 (≈ 113 µM) | ≥ 128 | ≥ 128 | 128 (≈ 227 µM) | 43.1 (≈ 76.3 µM) | 16 (≈ 28.3 µM) | 1 (≈ 1.77 µM) | 2 (≈ 3.54 µM) | 64 (≈ 113 µM) | 128 (≈ 227 µM) | > 128 | 128 (≈ 227 µM) | > 128 | > 128 | > 128 | > 128 | 64 (≈ 113 µM) | MIC [21]: 128 mg/L (≈ 227 µM); MIC [22]: 128 mg/L (≈ 227 µM); MIC [23]: 32 mg/L (≈ 56.7 µM); MIC [24]: 128 mg/L (≈ 227 µM); MIC [25]: 128 mg/L (≈ 227 µM); MIC [26]: > 128 mg/L; MIC [27]: 128 mg/L (≈ 227 µM)
2 | N=C(c1ccc2cc(-c3ccc(Oc4ccc(-c5cc6ccc(C(=N)N7CCC(N8CCCC8)CC7)cc6[nH]5)cc4)cc3)[nH]c2c1)N1CCC(N2CCCC2)CC1 | 3 to 8 (≈ 3.95 to 10.5 µM) | 8 (≈ 10.5 µM) | 32 (≈ 42.2 µM) | 64 (≈ 84.3 µM) | 128 (≈ 169 µM) | 128 (≈ 169 µM) | 128 (≈ 169 µM) | 1.1 (≈ 1.45 µM) | 8 (≈ 10.5 µM) | 8 (≈ 10.5 µM) | 8 (≈ 10.5 µM) | 64 (≈ 84.3 µM) | 32 (≈ 42.2 µM) | > 128 | 128 (≈ 169 µM) | > 128 | > 128 | > 128 | > 128 | 64 (≈ 84.3 µM) | MIC [28]: 8 mg/L (≈ 10.5 µM); MIC [29]: 8 mg/L (≈ 10.5 µM); MIC [30]: 8 mg/L (≈ 10.5 µM); MIC [31]: 16 mg/L (≈ 21.1 µM); MIC [32]: 8 mg/L (≈ 10.5 µM); MIC [33]: 8 mg/L (≈ 10.5 µM); MIC [34]: 8 mg/L (≈ 10.5 µM); MIC [35]: 8 mg/L (≈ 10.5 µM); MIC [36]: 8 mg/L (≈ 10.5 µM); MIC [37]: 8 mg/L (≈ 10.5 µM); MIC [21]: 128 mg/L (≈ 169 µM); MIC [22]: > 128 mg/L; MIC [23]: 128 mg/L (≈ 169 µM); MIC [24]: > 128 mg/L; MIC [25]: > 128 mg/L; MIC [26]: > 128 mg/L; MIC [38]: 32 mg/L (≈ 42.2 µM); MIC [27]: > 128 mg/L
3 | c1cc(-c2cc3ccc(C4=NCCN4)cc3[nH]2)ccc1Oc1ccc(-c2cc3ccc(C4=NCCN4)cc3[nH]2)cc1 | – | – | > 128 | > 128 | > 128 | > 128 | > 128 | 1.7 (≈ 3.17 µM) | 8 (≈ 14.9 µM) | 2 (≈ 3.73 µM) | – | > 128 | > 128 | > 128 | > 128 | > 128 | > 128 | > 128 | > 128 | > 128 | MIC [28]: 16 mg/L (≈ 29.8 µM); MIC [34]: 8 mg/L (≈ 14.9 µM); MIC [35]: 16 mg/L (≈ 29.8 µM); MIC [21]: > 128 mg/L; MIC [22]: > 128 mg/L; MIC [23]: > 128 mg/L; MIC [24]: > 128 mg/L; MIC [25]: > 128 mg/L; MIC [26]: > 128 mg/L; MIC [27]: > 128 mg/L
4 | CN[C@H](CC(C)C)C(=O)N[C@H]1C(=O)N[C@@H](CC(N)=O)C(=O)N[C@H]2C(=O)N[C@H]3C(=O)N[C@H](C(=O)N[C@H](C(=O)O)c4cc(O)cc(O)c4-c4cc3ccc4O)[C@H](O)c3ccc(c(Cl)c3)Oc3cc2cc(c3O[C@@H]2O[C@H](CO)[C@@H](O)[C@H](O)[C@H]2O[C@H]2C[C@](C)(N)[C@H](O)[C@H](C)O2)Oc2ccc(cc2Cl)[C@H]1O [VANCOMYCIN] | 0.5 (≈ 0.345 µM) | 1 (≈ 0.69 µM) | – | – | – | – | – | – | – | 0.5 (≈ 0.345 µM) | 1 (≈ 0.69 µM) | – | – | – | – | – | – | – | – | – | –
